In this assay the target is T1, RNF32 (GFP-RNF32) (Homo sapiens, UniProt Q9H0A6).
T1 construct: GFP-RNF32 fusion from plasmid, expressed in HCT116 cells, diluted cell lysate (not purified)
Put plainly: microscale thermophoresis, GFP-RNF32 in HCT116 lysate. It is filed as biochemical. Background: MST reads how a fluorescent partner responds to local heating, with and without ligand.

T1 sequence (Q9H0A6 whole entry, the tested form may be a part): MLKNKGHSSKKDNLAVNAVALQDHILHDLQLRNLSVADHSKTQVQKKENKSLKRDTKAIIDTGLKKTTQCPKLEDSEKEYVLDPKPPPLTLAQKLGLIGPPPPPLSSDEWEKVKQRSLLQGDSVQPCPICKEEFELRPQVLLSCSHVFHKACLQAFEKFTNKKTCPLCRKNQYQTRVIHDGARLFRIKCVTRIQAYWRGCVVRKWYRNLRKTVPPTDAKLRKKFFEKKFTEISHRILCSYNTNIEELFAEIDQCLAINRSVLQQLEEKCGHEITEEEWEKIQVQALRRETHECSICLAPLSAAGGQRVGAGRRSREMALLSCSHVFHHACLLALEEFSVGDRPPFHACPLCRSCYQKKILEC

Usually Kd stands for the equilibrium constant for the complex coming apart. A high value points to weaker binding. In turn, `O=C(O)Cc1c[nH]c2ccccc12` [indole‐3‐acetic acid] showed an equilibrium dissociation constant (Kd) of 41.3 µM.

The record behind these values is publication PMC12931155, “Colorectal Cancer Cell's Weapon: RNF32 Engages SPP1^+ Macrophages to Foster Liver Metastasis, Targeted by Indole‐3‐Acetic Acid” (Advanced Science, 2025).
